Laboratory results as given in patent publication US6355799B1, “Substituted benzene compounds, process for their preparation, and herbicidal and defoliant compositions containing them” (ISK Americas Incorporated, priority 1997, dated 2002).

What was measured:
Assay type in all cases: in vivo
[1] = system: redroot pigweed (Amaranthus retroflexus, AMARE); test: Pre-emerge test, greenhouse herbicide activity screening; conditions: pre-emerge, phytotoxicity rating 0-100 at 14 days after application
Procedure, shortened: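 Compounds in acetone were track-sprayed at 187 l/ha, 15–1000 g ai/ha, onto sandy loam pots. Pre-emerge seeds were sown one day before spraying, with surface watering afterwards. Post-emerge plants were at the 2–3 leaf stage and sprayed with 0.25% v/v non-ionic surfactant. Injury was rated 0–100 at 14 days.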

[2] = system: barnyardgrass (Echinochloa crus-galli, ECHCG); test: as above; conditions: pre-emerge, phytotoxicity rating 0-100 at 14 days after application
Procedure, shortened: (§1)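 Compounds in acetone were track-sprayed at 15–1000 g ai/ha: pre-emergence onto soil sown the previous day, then top-watered to incorporate and later bottom-watered; post-emergence onto 2–3 leaf plants with 0.25% v/v surfactant, bottom-watered only. Ratings on a 0–100 phytotoxicity scale were taken at day 14.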

[3] = system: green foxtail (Setaria viridis, SETVI); test: as above; conditions: pre-emerge, phytotoxicity rating 0-100 at 14 days after application
Procedure, shortened: as §1

[4] = system: ivyleaf morningglory (Ipomoea hederacea, IPOHE); test: as above; conditions: pre-emerge, phytotoxicity rating 0-100 at 14 days after application
Procedure, shortened: as §1

[5] = system: johnsongrass (Sorghum halepense, SORHA); test: as above; conditions: pre-emerge, phytotoxicity rating 0-100 at 14 days after application
Procedure, shortened: as §1

[6] = system: lambsquarters (Chenopodium album, CHEAL); test: as above; conditions: pre-emerge, phytotoxicity rating 0-100 at 14 days after application
Procedure, shortened: as §1

[7] = system: large crabgrass (Digitaria sanguinalis, DIGSA); test: as above; conditions: pre-emerge, phytotoxicity rating 0-100 at 14 days after application
Procedure, shortened: as §1

[8] = system: sicklepod (Cassia obtusifolia, CASOB); test: as above; conditions: pre-emerge, phytotoxicity rating 0-100 at 14 days after application
Procedure, shortened: as §1

[9] = system: velvetleaf (Abutilon theophrasti, ABUTH); test: as above; conditions: pre-emerge, phytotoxicity rating 0-100 at 14 days after application
Procedure, shortened: as §1

[10] = system: field corn (Zea mays L., var. Dekalb 535, CORN); test: Pre-emerge test, crop safety; conditions: crop damage, pre-emerge, phytotoxicity rating 0-100 at 14 days after application
Procedure, shortened: (§2)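 Applied at 15–1000 g ai/ha from acetone in 187 l/ha spray volume. Post-emergence applications included 0.25% v/v non-ionic surfactant and reached plants sown 8–21 days before. Pre-emergence applications were incorporated by surface watering. Efficacy or crop damage was rated on a 0–100 scale after 14 days.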

[11] = system: upland rice (Oryza sp., var. Tebonnet, RICE); test: Pre-emerge test, crop safety; conditions: crop damage, pre-emerge, phytotoxicity rating 0-100 at 14 days after application
Procedure, shortened: as §2

[12] = system: barnyardgrass (Echinochloa crus-galli, ECHCG); test: Post-emerge test, greenhouse herbicide activity screening; conditions: post-emerge, phytotoxicity rating 0-100 at 14 days after application
Procedure, shortened: as §2

[13] = system: green foxtail (Setaria viridis, SETVI); test: as above; conditions: post-emerge, phytotoxicity rating 0-100 at 14 days after application
Procedure, shortened: as §2

[14] = system: ivyleaf morningglory (Ipomoea hederacea, IPOHE); test: as above; conditions: post-emerge, phytotoxicity rating 0-100 at 14 days after application
Procedure, shortened: as §2

[15] = system: johnsongrass (Sorghum halepense, SORHA); test: as above; conditions: post-emerge, phytotoxicity rating 0-100 at 14 days after application
Procedure, shortened: as §2

[16] = system: lambsquarters (Chenopodium album, CHEAL); test: as above; conditions: post-emerge, phytotoxicity rating 0-100 at 14 days after application
Procedure, shortened: as §2

[17] = system: large crabgrass (Digitaria sanguinalis, DIGSA); test: as above; conditions: post-emerge, phytotoxicity rating 0-100 at 14 days after application
Procedure, shortened: as §2

[18] = system: redroot pigweed (Amaranthus retroflexus, AMARE); test: as above; conditions: post-emerge, phytotoxicity rating 0-100 at 14 days after application
Procedure, shortened: as §2

[19] = system: sicklepod (Cassia obtusifolia, CASOB); test: as above; conditions: post-emerge, phytotoxicity rating 0-100 at 14 days after application
Procedure, shortened: as §2

[20] = system: velvetleaf (Abutilon theophrasti, ABUTH); test: as above; conditions: post-emerge, phytotoxicity rating 0-100 at 14 days after application
Procedure, shortened: as §2

[21] = system: field corn (Zea mays L., var. Dekalb 535, CORN); test: Post-emerge test, crop safety; conditions: post-emerge, crop damage rating 0-100 at 14 days after application
Procedure, shortened: (§3)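 Rating: 0–100 visual injury, 14 DAA. Application: acetone, 187 l/ha, 15–1000 g ai/ha, flat-fan track sprayer with nozzle 40–45 cm above soil or canopy. Post-emerge runs used 0.25% v/v surfactant on 2–3 leaf plants.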

[22] = system: upland rice (Oryza sp., var. Tebonnet, RICE); test: Post-emerge test, crop safety; conditions: post-emerge, crop damage rating 0-100 at 14 days after application
Procedure, shortened: as §3

Q: With `COc1c(Cl)cc(F)c(N2C(=O)C3=C(CCCC3)C2=O)c1N` [8-7] as the compound, how does the “Pre-emerge Herbicidal Activity AMARE” value ([1]; rate 63 g ai/ha) read?
A: 99

Q: And the “Pre-emerge Herbicidal Activity AMARE” value ([1]; rate 250 g ai/ha)?
A: 100

Q: And the “Pre-emerge Herbicidal Activity ECHCG” value ([2]; rate 63 g ai/ha)?
A: 0

Q: What about the “Pre-emerge Herbicidal Activity ECHCG” value ([2]; rate 250 g ai/ha) of the same compound?
A: 70

Q: And the “Pre-emerge Herbicidal Activity SETVI” value ([3]; rate 63 g ai/ha)?
A: 95

Q: And the “Pre-emerge Herbicidal Activity SETVI” value ([3]; rate 250 g ai/ha)?
A: 99

Q: And the “Pre-emerge Herbicidal Activity IPOHE” value ([4]; rate 63 g ai/ha)?
A: 0

Q: What about the “Pre-emerge Herbicidal Activity IPOHE” value ([4]; rate 250 g ai/ha) of the same compound?
A: 0

Q: What about the “Pre-emerge Herbicidal Activity SORHA” value ([5]; rate 63 g ai/ha) of the same compound?
A: 10

Q: What about the “Pre-emerge Herbicidal Activity SORHA” value ([5]; rate 250 g ai/ha) of the same compound?
A: 70

Q: What about the “Pre-emerge Herbicidal Activity CHEAL” value ([6]; rate 63 g ai/ha) of the same compound?
A: 95

Q: What about the “Pre-emerge Herbicidal Activity CHEAL” value ([6]; rate 250 g ai/ha) of the same compound?
A: 100

Q: And the “Pre-emerge Herbicidal Activity DIGSA” value ([7]; rate 63 g ai/ha)?
A: 50

Q: And the “Pre-emerge Herbicidal Activity DIGSA” value ([7]; rate 250 g ai/ha)?
A: 80

Q: And the “Pre-emerge Herbicidal Activity CASOB” value ([8]; rate 63 g ai/ha)?
A: 0

Q: What about the “Pre-emerge Herbicidal Activity CASOB” value ([8]; rate 250 g ai/ha) of the same compound?
A: 0

Q: And the “Pre-emerge Herbicidal Activity ABUTH” value ([9]; rate 63 g ai/ha)?
A: 100

Q: What about the “Pre-emerge Herbicidal Activity ABUTH” value ([9]; rate 250 g ai/ha) of the same compound?
A: 100

Q: And the “Pre-emerge Herbicidal Activity CORN” value ([10]; rate 63 g ai/ha)?
A: 0

Q: What about the “Pre-emerge Herbicidal Activity CORN” value ([10]; rate 250 g ai/ha) of the same compound?
A: 10

Q: What about the “Pre-emerge Herbicidal Activity RICE” value ([11]; rate 63 g ai/ha) of the same compound?
A: 0

Q: What about the “Pre-emerge Herbicidal Activity RICE” value ([11]; rate 250 g ai/ha) of the same compound?
A: 0

Q: What about the “Post-emerge Herbicidal Activity ECHCG” value ([12]; 63 g ai/ha) of the same compound?
A: 0

Q: And the “Post-emerge Herbicidal Activity ECHCG” value ([12]; 250 g ai/ha)?
A: 20

Q: What about the “Post-emerge Herbicidal Activity SETVI” value ([13]; 63 g ai/ha) of the same compound?
A: 0

Q: What about the “Post-emerge Herbicidal Activity SETVI” value ([13]; 250 g ai/ha) of the same compound?
A: 90

Q: And the “Post-emerge Herbicidal Activity IPOHE” value ([14]; 63 g ai/ha)?
A: 10

Q: What about the “Post-emerge Herbicidal Activity IPOHE” value ([14]; 250 g ai/ha) of the same compound?
A: 70

Q: What about the “Post-emerge Herbicidal Activity SORHA” value ([15]; 63 g ai/ha) of the same compound?
A: 0

Q: And the “Post-emerge Herbicidal Activity SORHA” value ([15]; 250 g ai/ha)?
A: 0

Q: And the “Post-emerge Herbicidal Activity CHEAL” value ([16]; 63 g ai/ha)?
A: 95

Q: And the “Post-emerge Herbicidal Activity CHEAL” value ([16]; 250 g ai/ha)?
A: 99

Q: What about the “Post-emerge Herbicidal Activity DIGSA” value ([17]; 63 g ai/ha) of the same compound?
A: 0

Q: And the “Post-emerge Herbicidal Activity DIGSA” value ([17]; 250 g ai/ha)?
A: 10

Q: What about the “Post-emerge Herbicidal Activity AMARE” value ([18]; 63 g ai/ha) of the same compound?
A: 95

Q: And the “Post-emerge Herbicidal Activity AMARE” value ([18]; 250 g ai/ha)?
A: 100

Q: And the “Post-emerge Herbicidal Activity CASOB” value ([19]; 63 g ai/ha)?
A: 0

Q: What about the “Post-emerge Herbicidal Activity CASOB” value ([19]; 250 g ai/ha) of the same compound?
A: 90

Q: What about the “Post-emerge Herbicidal Activity ABUTH” value ([20]; 63 g ai/ha) of the same compound?
A: 95

Q: And the “Post-emerge Herbicidal Activity ABUTH” value ([20]; 250 g ai/ha)?
A: 100

Q: And the “Post-emerge Herbicidal Activity CORN” value ([21]; 63 g ai/ha)?
A: 10

Q: And the “Post-emerge Herbicidal Activity CORN” value ([21]; 250 g ai/ha)?
A: 10

Q: What about the “Post-emerge Herbicidal Activity RICE” value ([22]; 63 g ai/ha) of the same compound?
A: 0

Q: And the “Post-emerge Herbicidal Activity RICE” value ([22]; 250 g ai/ha)?
A: 90
